Measured values taken from patent US20170209413A1, “USE OF ASPARAGUSIC ACID AND DERIVATIVES THEREOF TO TREAT SYMPTOMS AND DISORDERS OF NEUROLOGICAL DISEASE” (priority 2016, published 2017).

Tests used:
[1] = boiling for 30 minutes; rearranges to 1,2,3-trithiane-5-carboxylic acid and 1,2-dithiacylopentene; cited from earlier work
[2] = system: shaking from Parkinson disease; test: hand writing skill test for relief of the shaking from Parkinson disease in one patient; format: in vivo, human
Procedure: A patient diagnosed with Parkinson's disease and in need of treatment by the methods disclosed herein was administered compositions comprising the compounds disclosed herein. The patient had been diagnosis with Parkinson's disease by two medical doctors, the family doctor and a neurologist. They had taken L-Dopa for over a year. The patient informed their doctors that they were no longer taking L-Dopa. They took nothing for their Parkinson's Disease for almost a year before beginning to take asparagusic acid.
The test for relief of the shaking from Parkinson disease was the patient's hand writing skill. Prior to treatment with asparagusic acid the patient could not write their name. […] Normally the ability to write was diminished within 12 hours, but their varied.
The asparagus top third was cut from the stalk and weighed. 50 to 100 grams was used per treatment. The tops were steamed for a short period of time. This was typically done by placing the asparagus tops in a pie plate and covered. No water was added. After a short heating period, for example heating in a microwave for 44 seconds on high, the asparagus is “self” steamed from water in the plant and may substantially help in the formation of asparagusic acid from asparaptine. […] Excess heating will decompose asparagusic acid and will likely form a dihydro byproduct by splitting the disulfide linkage.
A preparation as described above was taken at least two hours after eating. The asparagus was consumed immediately after heating with salt and taken with simple non-caffeine liquids such as water and white wine. No further food was consumed for at least an hour. […] One exception was found. […] It is noted that raw eggs contain many sulfur compounds.

Compound | stability during cooking [1] | time until ability to write was diminished ([2]; one Parkinson's patient, after treatment, varied) [h] | relief of the shaking from Parkinson disease (patient's hand writing skill) ([2]; one Parkinson's patient, 50 to 100 grams asparagus tops, steamed a short time (microwave 44 seconds), taken at least two hours after eating, no food for at least an hour) | effect on shaking, lipoic acid ([2]; 250 mg tablet, same manner in regards to food consumption as Example 1)
O=C(O)C1CSSC1 [asparagusic acid, 1,2-dithiolane-4-carboxylic acid] | not vary stable | ≤ 12 | could easily write their name in a flowing easy manner | 
O=C(O)CCCC[C@@H]1CCSS1 (racemic) [lipoic acid, reference compound] |  |  |  | no effect
